Measurements taken from patent US20230257347A1 (priority 2020, published 2023).
Counter-ions that a name gives are not always drawn.

Key:
[1] = molecular target: T1, Muscarinic acetylcholine Receptor M2 (CHRM2) (Homo sapiens, UniProt P08172); assay: cAMP assay, CHRM2; format: cell-based
T1 sequence (P08172 1-466): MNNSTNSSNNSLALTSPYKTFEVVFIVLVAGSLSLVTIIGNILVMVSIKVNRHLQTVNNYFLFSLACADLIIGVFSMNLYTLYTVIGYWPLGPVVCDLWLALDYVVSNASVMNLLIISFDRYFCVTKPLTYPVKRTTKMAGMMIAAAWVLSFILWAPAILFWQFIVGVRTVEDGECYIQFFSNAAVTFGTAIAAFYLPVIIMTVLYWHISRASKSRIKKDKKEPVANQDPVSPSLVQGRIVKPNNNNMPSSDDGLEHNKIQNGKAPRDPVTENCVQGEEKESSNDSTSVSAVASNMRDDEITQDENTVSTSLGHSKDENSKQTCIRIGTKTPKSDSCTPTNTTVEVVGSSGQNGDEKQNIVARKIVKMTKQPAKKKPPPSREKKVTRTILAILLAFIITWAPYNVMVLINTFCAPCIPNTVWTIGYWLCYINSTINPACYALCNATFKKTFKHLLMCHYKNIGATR

[2] = molecular target: T2, Muscarinic acetylcholine Receptor M1 (CHRM1) (Homo sapiens, UniProt P11229); assay: cell-based
T2 sequence (P11229 1-460): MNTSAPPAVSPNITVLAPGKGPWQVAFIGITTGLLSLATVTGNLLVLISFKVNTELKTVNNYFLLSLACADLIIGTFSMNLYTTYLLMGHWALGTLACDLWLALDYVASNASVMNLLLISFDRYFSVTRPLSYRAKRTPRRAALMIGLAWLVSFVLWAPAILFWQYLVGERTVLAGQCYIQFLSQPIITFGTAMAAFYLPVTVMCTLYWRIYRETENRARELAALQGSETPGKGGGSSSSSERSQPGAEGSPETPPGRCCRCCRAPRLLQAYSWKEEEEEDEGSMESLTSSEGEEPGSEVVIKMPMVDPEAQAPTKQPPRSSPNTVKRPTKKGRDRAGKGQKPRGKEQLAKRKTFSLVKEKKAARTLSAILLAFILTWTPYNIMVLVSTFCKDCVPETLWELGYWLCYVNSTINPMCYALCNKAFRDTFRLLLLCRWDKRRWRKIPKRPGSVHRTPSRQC

[3] = molecular target: NAV1.5 (tetrodotoxin-resistant voltage-gated sodium channel) (Homo sapiens, UniProt Q14524); assay: cell-based
[4] = molecular target: Opioid Receptor Mu (OPRM1) (Homo sapiens, UniProt P35372); assay: cell-based
Chain of Opioid Receptor Mu (OPRM1) (P35372 whole entry): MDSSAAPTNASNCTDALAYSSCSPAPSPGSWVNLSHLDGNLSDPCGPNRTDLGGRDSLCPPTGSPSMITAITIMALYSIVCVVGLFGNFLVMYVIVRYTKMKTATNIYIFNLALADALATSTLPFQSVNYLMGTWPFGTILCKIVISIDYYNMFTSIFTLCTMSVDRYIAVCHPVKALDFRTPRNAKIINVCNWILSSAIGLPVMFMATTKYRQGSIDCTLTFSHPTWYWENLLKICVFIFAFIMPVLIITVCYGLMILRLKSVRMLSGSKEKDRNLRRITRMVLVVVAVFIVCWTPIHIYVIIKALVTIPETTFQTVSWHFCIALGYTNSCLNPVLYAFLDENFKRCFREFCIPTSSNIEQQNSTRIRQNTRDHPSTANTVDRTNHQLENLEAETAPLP

human 5-HT2A = molecular target: T3, human 5-HT2A (Homo sapiens, UniProt P28223); assay: 5-HT2A agonist effect measured by HTRF as changes in IP1, HEK-293 cells; format: cell-based; settings: 3.0E-05 M; control 10 μM serotonin; 30 min at 37° C.; duplicate averaged
T3 construct: expressed in transfected cells; host or cells: HEK-293
Method: Potential agonist effects of BK-5F-NM-AMT, BK-5F-NM-AMT, and BK-5F-NM-AMT at 5-HT2A receptors was measured by HTRF as changes in IPl. The effects were measured using human 5-HT2A expressed in HEK-293 cells, based on methods reported in Porter et al. British Journal of Pharmacology, 1999. 128(1), 13-20. Incubation was 30 min at 37° C. 10 μM serotonin was used as a positive control. The tryptamine derivatives were each tested at six concentrations from 3.0E-10 to 3.0E-05 M using log steps. All assays were performed in duplicate with results averaged.

[5] = molecular target: T4, 5-Hydroxytryptamine (Serotonin) Receptor 1A (5-HT1A) (Homo sapiens, UniProt P08908); assay: cAMP secondary messenger assay, 5-HT1A; format: cell-based
T4 sequence (P08908 1-422): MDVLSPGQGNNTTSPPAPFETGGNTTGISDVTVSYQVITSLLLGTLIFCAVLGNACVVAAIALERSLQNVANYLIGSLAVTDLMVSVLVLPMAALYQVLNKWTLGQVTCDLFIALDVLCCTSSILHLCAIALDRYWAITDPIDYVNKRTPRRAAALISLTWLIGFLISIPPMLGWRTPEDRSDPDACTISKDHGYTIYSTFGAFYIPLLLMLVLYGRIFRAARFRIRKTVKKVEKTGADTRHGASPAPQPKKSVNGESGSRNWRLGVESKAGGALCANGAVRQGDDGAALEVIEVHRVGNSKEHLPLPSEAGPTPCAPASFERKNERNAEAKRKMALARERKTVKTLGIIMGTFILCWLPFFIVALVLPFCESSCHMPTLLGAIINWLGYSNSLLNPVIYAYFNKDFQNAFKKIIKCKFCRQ

KvLQT1/minK = molecular target: T5, KvLQT1/minK (Homo sapiens, UniProt P15382+P51787); assay: Ion channel assay, KvLQT1/minK; format: cell-based
T5 construct: expressed in transfected cells
T5 sequence (P51787 whole entry): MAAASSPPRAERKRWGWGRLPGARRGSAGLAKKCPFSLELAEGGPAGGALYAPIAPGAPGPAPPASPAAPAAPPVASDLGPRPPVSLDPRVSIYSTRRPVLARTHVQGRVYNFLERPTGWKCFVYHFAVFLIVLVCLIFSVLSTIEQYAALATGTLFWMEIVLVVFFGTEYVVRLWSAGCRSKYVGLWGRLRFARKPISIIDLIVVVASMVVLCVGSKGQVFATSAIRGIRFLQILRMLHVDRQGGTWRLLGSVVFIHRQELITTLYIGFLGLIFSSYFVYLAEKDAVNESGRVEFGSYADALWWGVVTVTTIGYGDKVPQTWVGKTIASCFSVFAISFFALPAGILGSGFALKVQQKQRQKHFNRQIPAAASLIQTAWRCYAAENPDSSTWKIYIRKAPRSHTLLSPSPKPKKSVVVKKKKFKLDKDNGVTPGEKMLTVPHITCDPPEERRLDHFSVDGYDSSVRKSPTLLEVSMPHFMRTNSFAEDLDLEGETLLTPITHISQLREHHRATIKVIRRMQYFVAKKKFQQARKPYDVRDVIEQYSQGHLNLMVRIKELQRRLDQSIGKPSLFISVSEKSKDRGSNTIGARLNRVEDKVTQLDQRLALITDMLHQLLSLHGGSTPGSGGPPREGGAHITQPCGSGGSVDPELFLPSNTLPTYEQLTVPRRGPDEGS

[6] = molecular target: T6, Norepinephrine transporter (NET) (Homo sapiens, UniProt P23975); assay: Monoamine transporter uptake assay (fluorescent substrate), NET; format: cell-based
T6 construct: expressed in transfected cells
T6 sequence (P23975 whole entry): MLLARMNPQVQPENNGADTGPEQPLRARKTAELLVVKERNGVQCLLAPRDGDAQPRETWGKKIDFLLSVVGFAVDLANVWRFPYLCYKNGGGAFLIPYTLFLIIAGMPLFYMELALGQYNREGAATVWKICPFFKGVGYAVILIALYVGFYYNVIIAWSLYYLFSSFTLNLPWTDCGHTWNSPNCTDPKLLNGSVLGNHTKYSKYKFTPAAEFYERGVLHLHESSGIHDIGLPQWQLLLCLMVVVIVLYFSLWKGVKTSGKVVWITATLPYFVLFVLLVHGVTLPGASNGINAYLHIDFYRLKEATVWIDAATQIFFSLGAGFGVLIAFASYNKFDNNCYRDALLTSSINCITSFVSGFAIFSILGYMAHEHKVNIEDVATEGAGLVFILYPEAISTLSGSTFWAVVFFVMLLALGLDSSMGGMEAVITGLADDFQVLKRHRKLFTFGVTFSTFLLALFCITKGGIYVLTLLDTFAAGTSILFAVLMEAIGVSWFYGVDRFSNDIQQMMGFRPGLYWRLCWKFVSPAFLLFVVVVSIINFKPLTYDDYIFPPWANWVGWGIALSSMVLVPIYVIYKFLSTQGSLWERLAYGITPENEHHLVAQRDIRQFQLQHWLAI

[7] = molecular target: Histamine Receptor H1 (HRH1) (Homo sapiens, UniProt P35367); assay: cell-based
Chain of Histamine Receptor H1 (HRH1) (P35367 whole entry): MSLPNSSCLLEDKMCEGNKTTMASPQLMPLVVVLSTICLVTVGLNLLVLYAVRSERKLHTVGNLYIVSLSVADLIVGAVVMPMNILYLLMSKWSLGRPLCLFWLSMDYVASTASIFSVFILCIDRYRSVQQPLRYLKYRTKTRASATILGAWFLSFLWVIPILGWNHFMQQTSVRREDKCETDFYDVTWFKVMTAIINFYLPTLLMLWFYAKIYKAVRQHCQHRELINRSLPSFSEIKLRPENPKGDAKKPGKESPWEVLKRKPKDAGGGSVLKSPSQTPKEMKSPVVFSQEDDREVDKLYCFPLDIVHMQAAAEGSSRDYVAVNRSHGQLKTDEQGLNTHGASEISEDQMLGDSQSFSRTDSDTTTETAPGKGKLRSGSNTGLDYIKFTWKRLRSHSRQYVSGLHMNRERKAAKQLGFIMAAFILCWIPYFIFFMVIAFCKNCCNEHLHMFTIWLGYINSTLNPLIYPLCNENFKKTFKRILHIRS

[8] = molecular target: Adrenergic Receptor β1 (ADRB1) (Homo sapiens, UniProt P08588); assay: cAMP assay, ADRB1; format: cell-based
Chain of Adrenergic Receptor β1 (ADRB1) (P08588 whole entry): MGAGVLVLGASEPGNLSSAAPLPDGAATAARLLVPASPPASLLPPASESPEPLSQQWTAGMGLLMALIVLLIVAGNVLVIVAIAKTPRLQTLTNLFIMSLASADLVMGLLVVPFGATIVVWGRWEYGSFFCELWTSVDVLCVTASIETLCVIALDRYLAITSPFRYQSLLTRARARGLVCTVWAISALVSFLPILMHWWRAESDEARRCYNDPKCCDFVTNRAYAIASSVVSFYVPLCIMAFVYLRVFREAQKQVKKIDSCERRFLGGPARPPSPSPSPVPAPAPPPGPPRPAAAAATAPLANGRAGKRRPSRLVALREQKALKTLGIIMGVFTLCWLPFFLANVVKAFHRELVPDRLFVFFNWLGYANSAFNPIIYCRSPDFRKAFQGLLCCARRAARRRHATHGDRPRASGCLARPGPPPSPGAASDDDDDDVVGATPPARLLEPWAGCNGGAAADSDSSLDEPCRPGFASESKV

[9] = molecular target: 5-Hydroxytryptamine (Serotonin) Receptor 2A (5-HT2A) (Homo sapiens, UniProt P28223); assay: Calcium flux secondary messenger assay, 5-HT2A; format: cell-based

Row | Compound | EC50 [1] [µM] | IC50 [1] [µM] | EC50 [2] [µM] | IC50 [2] [µM] | IC50 [3] [µM] | EC50 [4] [µM] | IC50 [4] [µM] | Signal changes at the highest tested concentration (human 5-HT2A) | EC50 [5] [µM] | IC50 [5] [µM] | EC50 (KvLQT1/minK) [µM] | IC50 (KvLQT1/minK) [µM] | IC50 [6] [µM] | EC50 [7] [µM] | IC50 [7] [µM] | EC50 [8] [µM] | IC50 [8] [µM] | EC50 [9] [µM] | IC50 [9] [µM]
1 | CNC(C)C(=O)c1c[nH]c2ccc(Br)cc12 (stereo not drawn) [BK-5Br-NM-AMT, 1-(5-bromo-1H-indol-3-yl)-2-(methylamino) propan-1-one hydrochloride] | > 10 | > 10 | > 10 | > 10 | > 10 | > 10 | > 10 | −1.1 % of control | > 10 | > 10 | > 10 | > 10 | > 10 | > 10 | > 10 | > 10 | > 10 | > 10 | 8.63
2 | CNC(C)C(=O)c1c[nH]c2ccc(Cl)cc12 (stereo not drawn) [BK-5Cl-NM-AMT, 1-(5-chloro-1H-indol-3-yl)-2-(methylamino) propan-1-one hydrochloride] | > 10 | > 10 | > 10 | > 10 | > 10 | > 10 | > 10 | 1.3 % of control | > 10 | > 10 | > 10 | > 10 | > 10 | > 10 | > 10 | > 10 | > 10 | > 10 | > 10
3 | CNC(C)C(=O)c1c[nH]c2ccc(F)cc12 (stereo not drawn) [BK-5F-NM-AMT, 1-(5-Fluoro-1H-indol-3-yl)-2-(methylamino) propan-1-one hydrochloride] | > 10 | > 10 | > 10 | > 10 | > 10 | > 10 | > 10 | −0.8 % of control | > 10 | > 10 | > 10 | > 10 | > 10 | > 10 | > 10 | > 10 | > 10 | > 10 | > 10
